Each structure is given as a SMILES string.

Test [1] has as its system rat collagen induced arthritis (CIA) model. Nature of the test: In vivo efficacy study in rat collagen induced arthritis (CIA) model. The following applies: female Lewis rats, 20 mg/kg PO once a day, 14 days. The protocol:
Example 45. In Vivo Efficacy Study in Rat Collagen Induced Arthritis (CIA) Model
Bovine type II collagen solution (Chondrex) was emulsified with an equal volume of incomplete Freund's adjuvant (IFA, Sigma) to achieve an emulsion with a collagen concentration of 1 mg/mL. Female Lewis rats were immunized with the emulsion (200 μL per rat) through subcutaneous injection at the base of tail. After seven days from the initial immunization, rats received a booster injection of the emulsion (100 μL per rat). Each paw of the rat was evaluated and scored on a 0-4 scale based on arthritis severity, and the arthritis score of each rat was the sum of scores from four paws. When the arthritis scores reached 2-3, rats were randomized into four groups and dosed once a day via oral gavage (PO) with vehicle, compounds 35, 49 and 66 for 14 days, respectively. The arthritis score was assessed every other day. Efficacy was calculated by [1−(T14−T0)/(V14−V0)]×100%, where T14 and V14 are the average arthritis scores of the treatment group and the vehicle group on Day 14 of measurement, respectively, while T0 and V0 are the average arthritis scores of the treatment group and the vehicle group on Day 0, respectively. Statistical significance of difference in arthritis scores between the treatment and vehicle groups was analyzed using one-way ANOVA followed by Dunnett's test, and P<0.05 was considered statistically significant.

A further test concerns the target T1, IL-17AA and IL-17RA (Homo sapiens, UniProt Q16552).
T1 construct: purchased Sino Biological 12047-H07B (IL-17AA); 10895-H02H (IL-17RA)
T1 sequence (Q16552 24-155): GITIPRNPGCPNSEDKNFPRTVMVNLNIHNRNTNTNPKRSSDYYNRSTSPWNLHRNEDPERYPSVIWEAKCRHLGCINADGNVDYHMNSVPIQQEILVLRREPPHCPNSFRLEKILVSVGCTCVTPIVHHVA
Nature of the test: Competitive inhibition of human IL-17AA and IL-17RA binding (HTRF). The conditions noted are these: recombinant IL-17AA (His-tag) and IL-17RA (hFc-tag); read-out: IC50 for Inhibiting IL-AA/IL-RA Binding. Summed up:
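His-IL-17AA (1 nM) premixed 1 h with anti-His-Tb (0.4 nM), and Fc-IL-17RA (1 nM) with anti-IgG-d2 (1 μg/mL); these are pre-mix levels. Compounds, diluted from 10 μM, preincubated 2 h RT with IL-17AA mix; IL-17RA mix then added, 20 min. 665/615 ratio vs no-compound and no-IL-17AA controls; IC50 by 4-parameter fit.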

Test [2] concerns IL-17AA-induced IL-17 signaling pathway. Nature of the test: Inhibition of IL-17AA-induced IL-17 signaling pathway in HEK-Blue IL-17 reporter cells (SEAP). The following applies: Homo sapiens; HEK-Blue IL-17 cells, IL-17AA 2.5 ng/mL, 20 hours; read-out: IC50 for Inhibiting IL-AA Signaling. Type of test: cell-based. In outline:
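HEK-Blue IL-17 cells (HEK293 expressing human IL-17RA/RC, ACT1 and NF-κB/AP-1-driven SEAP), 10,000/well, pre-incubated with compound (serial dilution from 10 μM) for 1 h at 37 °C, then stimulated with IL-17AA at 2.5 ng/mL final for 20 h. SEAP in supernatant read with Quanti-Blue at 620 nm; IC50 by 4-parameter fit.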

The test system of test [3] is IL-17AF-induced IL-17 signaling pathway. Nature of the test: Inhibition of IL-17AF-induced IL-17 signaling pathway. The following applies: Homo sapiens; IL-17AF used instead of IL-17AA; read-out: IC50 for Inhibiting IL-AF Signaling. Type of test: cell-based. Summed up: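 HEK293-derived HEK-Blue IL-17 cells (IL-17RA/RC, ACT1, NF-κB/AP-1-driven SEAP) preincubated 1 hour at 37° C with serially diluted compound from 10 μM, then stimulated with IL-17AF for 20 hours. SEAP read colorimetrically at 620 nm; IC50 from 4-parameter fit of % inhibition.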

For the molecule `[2H]C([2H])([2H])n1nccc1C(=O)N[C@H](C(=O)Nc1ccc([C@H](C)[C@@H](NC(=O)COC)c2ncnn2CC2CC2)cc1F)C(C1CC1)C1CC1` [Compound 35, N-((S)-1,1-dicyclopropyl-3-((4-((1R,2S)-1-(1-(cyclopropylmethyl)-1H-1,2,4-triazol-5-yl)-1-(2-methoxyacetamido)propan-2-yl)-2-fluorophenyl)amino)-3-oxopropan-2-yl)-1-(methyl-d3)-1H-pyrazole-5-carboxamide], the “suppression of arthritis disease progression (arthritis score)” value (from here on “suppression”) in test [1] is recorded as “completely suppressed arthritis disease progression”. The IC50 on IL-17AA and IL-17RA stood at 5.2 nM; in test [2] it was 4.5 nM; in test [3] it was 8.6 nM.

In the case of `COCC(=O)N[C@@H](c1ncnn1CC1CC1)[C@@H](C)c1ccc(NC(=O)[C@@H](NC(=O)c2nonc2C)C(C2CC2)C2CC2)c(F)c1` [Compound 39, N-((S)-1,1-dicyclopropyl-3-((4-((1R,2S)-1-(1-(cyclopropylmethyl)-1H-1,2,4-triazol-5-yl)-1-(2-methoxyacetamido)propan-2-yl)-2-fluorophenyl)amino)-3-oxopropan-2-yl)-4-methyl-1,2,5-oxadiazole-3-carboxamide], the “suppression” value in test [1] is reported as “completely suppressed arthritis disease progression”. The IC50 on IL-17AA and IL-17RA is 2.2 nM; in test [2], 1.8 nM; in test [3], 2.6 nM.

Regarding `CCC(=O)N[C@@H](c1ncnn1CC1CC1)[C@@H](C)c1ccc(NC(=O)[C@@H](NC(=O)c2nonc2C)C(C2CC2)C2CC2)c(F)c1` [Compound 66, N-((S)-1,1-dicyclopropyl-3-((4-((1R,2S)-1-(1-(cyclopropylmethyl)-1H-1,2,4-triazol-5-yl)-1-propionamidopropan-2-yl)-2-fluorophenyl)amino)-3-oxopropan-2-yl)-4-methyl-1,2,5-oxadiazole-3-carboxamide], the “suppression” value in test [1] is recorded as “completely suppressed arthritis disease progression”. In addition, the IC50 is 1.1 nM on IL-17AA and IL-17RA; 3.3 nM in test [2]; 8.4 nM in test [3].

These data come from patent US20260083708A1, “IL-17 MODULATORS AND USES THEREOF” (NNOCARE PHARMA INC., priority 2024, published 2026).
